What was measured:
[1] = test system: BAR-T cells; assay: Morphological changes; format: cell-based, human
Procedure: Cell line medium and cell culture—BAR-T cells were grown in special supplemented keratinocyte medium (KBM2) from Cambrex Bioscience (East Rutherford, N.J., USA), as per the protocol described by Jaiswal et al. Hydrochloric acid (A) was used to adjust the pH of the culture medium to experimental conditions. The bile acid, glycochenodeoxycholic acid, GCDA (Sigma, St. Louis, […]., USA), was diluted to optimum working concentration of 200 μM (B) with the culture medium adjusted to pH4 (A+B). 0.1×10^6 cells growing on six-well plates were incubated in A or A+B for 5 min in 24 h. For chronic exposure, cells were exposed for 5 min everyday to A only for up to 34 weeks and A+B for up to 84 weeks. No treatment was done on the day the cells were passed. The time was optimized from similar studies, showing that 5 min was sufficient for induction of signal transduction pathways regulating cellular machinery without cell damage. […] Morphological Changes and Growth analysis—BAR-T cells that were exposed to A+B at various weeks were plated at 1×10^5 cells per well in 12 well plates and counted in triplicate using a Beckman Coulter Counter (Vi-CELL1.00). Cells were counted periodically and morphological changes were examined weekly. […] Large (>1 mm) and small colonies (<1 mm) were visually identified, photographed and counted separately. […]

[2] = test system: BAR-T cells; assay: Real-time RT-PCR mRNA expression, normalized to β actin; format: cell-based, human; settings: for molecular changes (mRNA), particularly transformation marker TC22: A alone (pH4) up to 34 weeks
Procedure: Cell line medium and cell culture—BAR-T cells were grown in special supplemented keratinocyte medium (KBM2) from Cambrex Bioscience (East Rutherford, N.J., USA), as per the protocol described by Jaiswal et al. Hydrochloric acid (A) was used to adjust the pH of the culture medium to experimental conditions. The bile acid, glycochenodeoxycholic acid, GCDA (Sigma, St. Louis, […]., USA), was diluted to optimum working concentration of 200 μM (B) with the culture medium adjusted to pH4 (A+B). 0.1×10^6 cells growing on six-well plates were incubated in A or A+B for 5 min in 24 h. For chronic exposure, cells were exposed for 5 min everyday to A only for up to 34 weeks and A+B for up to 84 weeks. No treatment was done on the day the cells were passed. The time was optimized from similar studies, showing that 5 min was sufficient for induction of signal transduction pathways regulating cellular machinery without cell damage. The cells were rinsed with phosphate buffered saline (PBS) before and after incubation with desired treatment medium. The control untreated cells were grown in parallel in the special medium as mentioned above at pH7.4. A portion of the cells were harvested every 4-6 weeks. Morphological Changes and Growth analysis—BAR-T cells that were exposed to A+B at various weeks were plated at 1×10^5 cells per well in 12 well plates and counted in triplicate using a Beckman Coulter Counter (Vi-CELL1.00). Cells were counted periodically and morphological changes were examined weekly. Foci assay: Cells were plated at 5×10^5 cells per 100 mm dishes (35). Untreated cells grown in parallel were also plated. Cells were grown for 4-5 weeks with regular medium changes beyond 100% confluency, fixed with 10% methanol, 10% acetic acid solution, and stained with 20% ethanol, 0.4% crystal violet for 5 min. Growth in soft agar: Each well of the six well plates was layered with base agar layer containing 0.8% agar in grown medium. […] Large (>1 mm) and small colonies (<1 mm) were visually identified, photographed and counted separately. […]

Row | Structure (SMILES) | morphological changes ([1]; chronic exposure to A alone, up to 34 weeks) | molecular changes (mRNA), particularly transformation marker TC22 [2] | molecular changes (mRNA), particularly transformation marker TC22 ([2]; listed as Acid (pH4)) | P53 expression ([2]; A alone up to 34 weeks) | effect on BAR-T cells ([1]; B alone up to 6 weeks, initial study)
1 | Cl [A, Hydrochloric acid] | did not show any morphological changes | did not show the above molecular changes | remained mostly unchanged | minor increase | 
2 | CC(CCC(=O)NCC(=O)O)C1CCC2C3C(O)CC4CC(O)CCC4(C)C3CCC12C (centres unmarked) [B, glycochenodeoxycholic acid, reference compound] |  |  |  |  | no appreciable effect
